1 compound from US9572786B2, “Use of capsiate or dihydrocapsidate” (Catholic University Industry Academy Cooperation Foundation, priority 2007, dated 2017) can be followed below.

For one test, the system named is IL-8. Nature of the test: UV-induced pro-inflammatory cytokine mRNA, RT-PCR: IL-8. It counts as cell-based, human. To be noted: HaCaT cells; 10, 25, 50 μM; UV 100 J/m^2; 4 hours. The method, then: (§1) 1×10^6 HaCaT cells were placed on a 100 mm Petri dish and cultured for 24 hours in DMEM containing 10% FBS. Subsequently, the cells were cultured for 24 hours in DMEM containing 1% FBS until starvation. Then, after treating with capsiate at different concentrations (10 μM, 25 μM, 50 μM) for 30 minutes, followed by washing 3 times with PBS, UV was irradiated at an intensity of 100 J/m^2 to induce the production of cytokines. Immediately after the UV irradiation, the cells were washed again with PBS and further cultured for 4 hours in DMEM containing 1% FBS, which was treated with capsiate at the same concentration as in the pre-treatment.
Then, the degree of mRNA expression for IL-6, IL-8 and TNF-α induced mainly in the skin by the UV irradiation was evaluated by RT-PCR in order to measure the inhibition effect against the pro-inflammatory cytokines.
RNAs were extracted from the cells of each test group using Trizol (Invitrogen, USA) and used as template for PCR (PTC-225 Peltier thermal cycler, MJ Research, USA) to prepare cDNAs for each test group. Using the resultant cDNAs as template, the degree of mRNA expression for IL-6, IL-8 and TNF-α was measured by RT-PCR (Roter Gene 6000 series, Corbett Research, Australia) using commercial IL-6, IL-8 and TNF-α primers. […]

In a further test the test system is MMP-9. Nature of the test: Zymography of secreted MMP-9 after UV. In kind it is cell-based, human. To be noted: HaCaT culture medium; 10, 25, 50 μM; UV 100 J/m^2; 36 hours. The method, then: Zymography was carried out in order to investigate the decrease of expression and activity of MMP-2 and MMP-9 in protein level.
as §1, with “5×10^5 HaCaT” for “1×10^6 HaCaT”, “a 60” for “a 100”, “100 J/m^2.” for “100 J/m^2 to induce the production of cytokines.”, “for 36” for “for 4”, “pre-treatment. After collecting the culture medium, the activity of MMP-2 and MMP-9 proteins secreted from the cells into the medium was measured. To this end, the mediums obtained from the same number of cells were concentrated to the same volume, and the temperature was maintained at 4° C. in order to avoid the effect on the protein activity.” for “pre-treatment.”
Thus prepared sample was subjected to electrophoresis at 4° C. using 7.5% acrylamide gel containing gelatin but without sodium dodecyl sulfate (SDS). […]

A further test has as its system JNK. The test is described as follows: MAPK signaling in mouse skin tissue, Western blotting: JNK. The conditions noted are these: hairless mouse; UV+CPT vs UV with acetone only. In kind it is in vivo. On the procedure:
In order to investigate the intracellular mechanism (signaling) related with the inhibition of COX-2 expression by capsiate, Western blotting was carried out for MAPK signaling-related proteins (ERK, p-ERK, p38, p-p38 and JNK, p-JNK) as in Example 2-2, using proteins isolated from the mouse skin tissue.
(In general: A western blot detects proteins with antibodies after separation by electrophoresis.)

In a further test the test system is PECAM-1 (CD31). Nature of the test: PECAM-1 expression in mouse skin, immunohistochemical staining. The conditions noted are these: mouse skin tissue of Example 5; treated prior to UV irradiation. In kind it is in vivo. On the procedure: In order to investigate the effect of capsiate on various intracellular angiogenesis-related expression factors, the inhibition effect of capsiate on angiogenesis factors induced by UV was evaluated using the mouse tissue of Example 5.
To investigate this effect, the paraffin-embedded tissue prepared as in Example 6 was processed in the same manner as Example 6, treated with PECAM-1 antibody (1:100, BD Pharmingen, USA) on a slide, treated with biotinylated secondary antibody (DAKO code K0675; DAKO Corp., USA) for 30 minutes, and washed 3 times. After treatment with streptavidin-peroxidase (DAKO code K0675, DAKO Corp., USA) for 30 minutes, followed by washing 3 times with PBS, the tissue was stained using DAB (DAKO Corp., USA) for confirmation of the level of PECAM-1 expression.

As to `COc1cc(COC(=O)CCCC/C=C/C(C)C)ccc1O` [capsiate], the “expression of IL-8 (mRNA) increased by UV irradiation” value with IL-8 is recorded as “significantly decreases”. Further, in the test with MMP-9, the “expression and activity of MMP-9 (zymography)” value was “inhibited expression and activity”. Further, the “JNK (phosphorylation) in mouse skin tissue” value in the test on JNK is “no significant difference”. The “level of PECAM-1 expression” value with PECAM-1 (CD31) is reported as “significantly lower”.
